Measured values taken from article PMC11954145, “Antimicrobial and ADME properties of methoxylated, methylated and nitrated 2-hydroxynaphthalene-1 carboxanilides” (ADMET & DMPK, 2025).
In brackets after ≈: the same amount, converted by molar mass. Like-named read-outs stand apart in the source and are kept apart here.

Assays:
S. aureus ATCC 29213 = experiment: Antibacterial screening, broth microdilution MIC; type: cell-based; settings: Staphylococcus aureus, ATCC29213; ATCC 29213, 24 h at 37 °C; read-out: MIC S. aureus
MRSA 63718 = experiment: Antibacterial screening, broth microdilution MIC; type: cell-based, methicillin-resistant S. aureus; settings: Staphylococcus aureus, clinical isolate, 24 h at 37 °C, read-out: MIC MRSA 63718
MRSA SA 630 = experiment: Antibacterial screening, broth microdilution MIC; type: cell-based, methicillin-resistant S. aureus; settings: Staphylococcus aureus, clinical isolate, 24 h at 37 °C, read-out: MIC MRSA SA 630
MRSA SA 3202 = experiment: Antibacterial screening, broth microdilution MIC; type: cell-based, methicillin-resistant S. aureus; settings: Staphylococcus aureus, clinical isolate, 24 h at 37 °C, read-out: MIC MRSA SA 3202
[1] = test system: Enterococcus faecalis ATCC 29212; experiment: Antibacterial screening, broth microdilution MIC; type: cell-based; settings: read-out: MIC E. faecalis
E. coli ATCC 25922 = experiment: Antibacterial screening, broth microdilution MIC; type: cell-based; settings: Escherichia coli, ATCC25922; ATCC 25922, 24 h at 37 °C
[2] = Lipophilicity determination by RP-HPLC (log k, log D); type: physicochemical; settings: for log D6.5: RP-HPLC C18, MeOH 72 % / acetate-buffered saline pH 6.5; for log D7.4: RP-HPLC C18, MeOH 72 % / acetate-buffered saline pH 7.4; for log k (logarithm of the capacity factor): RP-HPLC C18, MeOH 72 % / water 28 %
Description: An HPLC system Agilent 1200 equipped with a DAD detector (Agilent, Santa Clara, CA, USA) was used. A chromatographic column Symmetry® C18 5 μm, 4.6×250 mm, part No. WAT054275 (Waters Corp., Milford, MA, USA) was used. The HPLC separation process was monitored and evaluated with EZChrom Elite software ver. 3.3.2 (Agilent). Isocratic elution by a mixture of MeOH p.a. (72 %) and H2O-HPLC Mili-Q grade (28 %) as a mobile phase was used for the determination of capacity factor k. Isocratic elution by a mixture of MeOH p.a. (72 %) and acetate-buffered saline (pH 7.4 and pH 6.5) (28 %) as a mobile phase was used for the determination of distribution coefficients expressed as D7.4 and D6.5. The total flow of the column was 1.0 mL min^-1, the injection volume was 20 μL, the column temperature was 40 °C, and the sample temperature was 10 °C. The detection wavelength of 210 nm was chosen. A KI methanolic solution was used to determine the dead times (tD). Retention times (tR) were measured in minutes. The capacity factors k were calculated according to the formula k = (tR–tD)/tD, where tR is the retention time of the solute, and tD is the dead time obtained using an unretained analyte. The distribution coefficients DpH were calculated according to the formula DpH = (tR–tD)/tD. Each experiment was repeated three times.
The capacity factor and distribution coefficients were measured by RP-HPLC on a C18 column with methanol as an organic modifier of the mobile phase. In addition to the experimental lipophilicities, predicted log P values were also calculated using ACD/Percepta, see Table 1. […] The values of σ(Ar) are found in a wide range from 0.01 to 1.36, so the compounds contain substituents with both electron-donating and slightly electron-withdrawing properties.

VRE 342B = experiment: Antibacterial screening, broth microdilution MIC; type: cell-based, vancomycin-resistant E. faecalis; settings: Enterococcus, read-out: MIC VRE 342B
VRE 725B = experiment: Antibacterial screening, broth microdilution MIC; type: cell-based, vancomycin-resistant E. faecalis; settings: Enterococcus, read-out: MIC VRE 725B
VRE 368 = experiment: Antibacterial screening, broth microdilution MIC; type: cell-based, vancomycin-resistant E. faecalis; settings: Enterococcus, read-out: MIC VRE 368
[3] = test system: Mycobacterium tuberculosis ATCC 25177/H37Ra; experiment: Antimycobacterial screening, broth dilution MIC (Alamar blue); type: cell-based; settings: 336 h, read-out: MIC M. tuberculosis
Experimental: The evaluation of in vitro antimycobacterial activity of the compounds was performed against Mycobacterium tuberculosis ATCC 25177/H37Ra, Mycobacterium kansasii DSM 44162 and Mycobacterium smegmatis ATCC 700084.
The broth dilution micro-method in Middlebrook 7H9 medium (Difco, Lawrence, KS, USA) supplemented with ADC Enrichment (Difco) was used to determine the minimum inhibitory concentration (MIC) as previously described. […] The final concentrations of the evaluated compounds, ranging from 256 to 0.125 μg mL^-1, were obtained by twofold serial dilution of the stock solution in a microtiter plate with a sterile medium. Bacterial inocula were prepared by transferring colonies from culture to sterile water. The plate was inoculated by tested microorganisms. The final concentration of bacterial cells was 1.5×10^6 for M. tuberculosis and 10^5 cells in a microtiter plate for other mycobacteria. Isoniazid and rifampicin (Sigma) were used as reference antimycobacterial drugs. Drug-free controls, sterility controls, and controls consisting of medium and DMSO alone were included. The plates were incubated for a defined time at an appropriate temperature (3 days at 37 °C for M. smegmatis, and 14 days at 37 °C for M. tuberculosis and M. kansasii). […] The MICs against M. tuberculosis were evaluated by Alamar blue (Oxoid). After incubation, 10 % of Alamar blue was added to each well, and the plate was incubated for 24 h. The MIC values were assessed as the lowest concentration of the tested compounds, which prevented changing blue resazurin to pink resorufin. The experiments were repeated three times. The minimum inhibitory concentrations (MICs) were defined as the lowest concentration of the compound at which no visible bacterial growth was observed. The MIC value is routinely and widely used in bacterial assays and is a standard detection limit according to the CLSI [60].

[4] = test system: Mycobacterium kansasii DSM 44162; experiment: Antimycobacterial screening, broth dilution MIC; type: cell-based; settings: DSM44162, 336 h, read-out: MIC M. kansasii
[5] = test system: Mycobacterium smegmatis ATCC 700084; experiment: Antimycobacterial screening, broth dilution MIC; type: cell-based; settings: Mycolicibacterium smegmatis, ATCC700084, 72 h; ATCC 700084, 3 days at 37 °C; read-out: MIC M. smegmatis
[6] = ATCC29212, ATCC 29212, 24 h at 37 °C
[7] = H37Ra, 14 days at 37 °C, Alamar blue

**Q.** Which MIC (S. aureus ATCC 29213) does the source give for CC1(C)S[C@@H]2[C@H](NC(=O)[C@H](N)c3ccccc3)C(=O)N2[C@H]1C(=O)O [AMP, ampicillin, reference compound] here?
**A.** The MIC was 5.72 µM (≈ 2 µg/mL).

**Q.** What about the MIC (MRSA 63718) of the same compound?
**A.** Its MIC is 45.8 µM (≈ 16 µg/mL).

**Q.** And the MIC (MRSA SA 630)?
**A.** Its MIC is 45.8 µM (≈ 16 µg/mL).

**Q.** What about the MIC (MRSA SA 3202) of the same compound?
**A.** The MIC was 45.8 µM (≈ 16 µg/mL).

**Q.** What about the MIC [1, 6] of the same compound?
**A.** Its MIC is 2.81 µM (≈ 0.982 µg/mL).

**Q.** What about the MIC (E. coli ATCC 25922) of the same compound?
**A.** The MIC was 45.8 µM (≈ 16 µg/mL).

**Q.** For COc1ccccc1NC(=O)c1c(O)ccc2ccccc12 [Compound 2, 2-hydroxy-N-(2-methoxyphenyl)naphthalene-1-carboxamide], which “log D6.5” value [2] is on record?
**A.** The value was 0.3015.

**Q.** And the “log D7.4” value [2]?
**A.** Its value is 0.3069.

**Q.** And the “log k (logarithm of the capacity factor)” value [2]?
**A.** Its value is 0.3181.

**Q.** And the MIC ([1]; ATCC29212, 24 h)?
**A.** Its MIC is over 873 µM.

**Q.** And the MIC (VRE 342B; 24 h)?
**A.** Its MIC is over 873 µM.

**Q.** And the MIC (VRE 725B; 24 h)?
**A.** The MIC was over 873 µM.

**Q.** What about the MIC (VRE 368; 24 h) of the same compound?
**A.** Its MIC is over 873 µM.

**Q.** And the MIC (E. coli ATCC 25922)?
**A.** The MIC was 873 µM (≈ 256 µg/mL).

**Q.** What about the MIC [3, 7] of the same compound?
**A.** Its MIC is over 873 µM.

**Q.** What about the MIC [4] of the same compound?
**A.** The MIC was over 873 µM.

**Q.** Which results are given for COc1cccc(NC(=O)c2c(O)ccc3ccccc23)c1 [Compound 3, 2-hydroxy-N-(3-methoxyphenyl)naphthalene-1-carboxamide]?
**A.** log D6.5 [2]: 0.1643; log D7.4 [2]: 0.1717; log k (logarithm of the capacity factor) [2]: 0.1751; MIC (S. aureus ATCC 29213): 436 µM (≈ 128 µg/mL); MIC (MRSA 63718): 436 µM (≈ 128 µg/mL); MIC (MRSA SA 630): 873 µM (≈ 256 µg/mL); MIC [1, 6]: > 873 µM; MIC (VRE 342B; vanA isolate, 24 h at 37 °C): > 873 µM; MIC (VRE 725B; vanA isolate, 24 h at 37 °C): > 873 µM; MIC (VRE 368; vanA isolate, 24 h at 37 °C): > 873 µM; MIC (E. coli ATCC 25922): 873 µM (≈ 256 µg/mL); MIC [3, 7]: 218 µM (≈ 63.9 µg/mL); MIC ([4]; DSM 44162, 14 days at 37 °C): 109 µM (≈ 32 µg/mL)

**Q.** Which “log D6.5” value [2] does the source give for COc1ccc(NC(=O)c2c(O)ccc3ccccc23)cc1 [Compound 4, 2-hydroxy-N-(4-methoxyphenyl)naphthalene-1-carboxamide] here?
**A.** Its value is -0.0491.

**Q.** What about the “log D7.4” value [2] of the same compound?
**A.** The value was -0.0382.

**Q.** What about the “log k (logarithm of the capacity factor)” value [2] of the same compound?
**A.** Its value is -0.0380.

**Q.** What about the MIC (S. aureus ATCC 29213) of the same compound?
**A.** The MIC was over 873 µM.

**Q.** What about the MIC (MRSA 63718) of the same compound?
**A.** The MIC was over 873 µM.

**Q.** And the MIC (MRSA SA 630)?
**A.** The MIC was over 873 µM.

**Q.** And the MIC (MRSA SA 3202)?
**A.** The MIC was over 873 µM.

**Q.** And the MIC [1, 6]?
**A.** The MIC was over 873 µM.

**Q.** What about the MIC (VRE 342B; vanA isolate, 24 h at 37 °C) of the same compound?
**A.** The MIC was over 873 µM.

**Q.** And the MIC (VRE 725B; vanA isolate, 24 h at 37 °C)?
**A.** Its MIC is over 873 µM.

**Q.** And the MIC (VRE 368; vanA isolate, 24 h at 37 °C)?
**A.** Its MIC is over 873 µM.

**Q.** What about the MIC (E. coli ATCC 25922) of the same compound?
**A.** Its MIC is 873 µM (≈ 256 µg/mL).

**Q.** And the MIC [3, 7]?
**A.** Its MIC is 109 µM (≈ 32 µg/mL).

**Q.** And the MIC ([4]; DSM 44162, 14 days at 37 °C)?
**A.** Its MIC is 218 µM (≈ 63.9 µg/mL).

**Q.** What about the MIC [5] of the same compound?
**A.** The MIC was 436 µM (≈ 128 µg/mL).

**Q.** What does the source list for COc1ccc(OC)c(NC(=O)c2c(O)ccc3ccccc23)c1 [Compound 5, N-(2,5-Dimethoxyphenyl)-2-hydroxynaphthalene-1-carboxamide]?
**A.** log D6.5 [2]: 0.3263; log D7.4 [2]: 0.3310; log k (logarithm of the capacity factor) [2]: 0.3353; MIC (S. aureus ATCC 29213): 792 µM (≈ 256 µg/mL); MIC (MRSA 63718): 792 µM (≈ 256 µg/mL); MIC (MRSA SA 630): 792 µM (≈ 256 µg/mL); MIC (MRSA SA 3202): 792 µM (≈ 256 µg/mL); MIC [1, 6]: 792 µM (≈ 256 µg/mL); MIC (VRE 342B; vanA isolate, 24 h at 37 °C): 792 µM (≈ 256 µg/mL); MIC (VRE 725B; vanA isolate, 24 h at 37 °C): 792 µM (≈ 256 µg/mL); MIC (VRE 368; vanA isolate, 24 h at 37 °C): 792 µM (≈ 256 µg/mL); MIC (E. coli ATCC 25922): 792 µM (≈ 256 µg/mL); MIC [3, 7]: 396 µM (≈ 128 µg/mL); MIC ([4]; DSM 44162, 14 days at 37 °C): 792 µM (≈ 256 µg/mL); MIC [5]: 792 µM (≈ 256 µg/mL)

**Q.** What does the source list for COc1cc(NC(=O)c2c(O)ccc3ccccc23)cc(OC)c1OC [Compound 7, 2-Hydroxy-N-(3,4,5-trimethoxyphenyl)naphthalene-1-carboxamide]?
**A.** log D6.5 [2]: -0.1053; log D7.4 [2]: -0.0948; log k (logarithm of the capacity factor) [2]: -0.1150; MIC (S. aureus ATCC 29213): 838 µM (≈ 296 µg/mL); MIC (MRSA 63718): 838 µM (≈ 296 µg/mL); MIC (MRSA SA 630): 838 µM (≈ 296 µg/mL); MIC (MRSA SA 3202): 419 µM (≈ 148 µg/mL); MIC [1, 6]: 724 µM (≈ 256 µg/mL); MIC (VRE 342B; vanA isolate, 24 h at 37 °C): 724 µM (≈ 256 µg/mL); MIC (VRE 725B; vanA isolate, 24 h at 37 °C): 724 µM (≈ 256 µg/mL); MIC (VRE 368; vanA isolate, 24 h at 37 °C): 724 µM (≈ 256 µg/mL); MIC (E. coli ATCC 25922): 838 µM (≈ 296 µg/mL); MIC [3]: 210 µM (≈ 74.2 µg/mL); MIC ([4]; DSM 44162, 14 days at 37 °C): 838 µM (≈ 296 µg/mL); MIC [5]: 210 µM (≈ 74.2 µg/mL)
